Experimental data as given in US11180657B2, “Polysulfonated fluorescence dyes” (ATTO-TEC GmbH, priority 2017, dated 2021).
Marks after values point to notes of the source that are not given here.

Key:
Type in all cases: physicochemical
[1] = Lactone or pseudobase formation in aqueous weakly alkaline solution; settings: aqueous weakly alkaline solutions; reversible
Description: Normally such lactones are adequately stabilized only in aprotic solvents such as acetone or chloroform. In protic solvents the carboxyl group is deprotonated and a slightly more short-wave absorbing and fluorescent zwitterion is formed. In the exemplary compounds, however, colorless compounds are formed due to the strong electron attraction of the indicated substituents, due to internal ester formation and the associated interruption of the conjugated system. If the carboxyl group is not free but is present as an ester or tertiary amide, so-called pseudobases are formed, through nucleophilic attack (hydroxide ions etc.) at the central carbon atom, which is stronger positivized by the electron-attracting substituents, which pseudobases are likewise colorless due to the interruption of the conjugated system. Both reactions are reversible; by changing the pH value, the dielectric constant (“polarity”) and/or the capability of hydrogen bridge bonding (“proticity”), the dye can be restored. Therefore such compounds can in principle be used as probes for the properties of their direct environment: Depending on the milieu, the molecules are present in colorless or colored form. Associated therewith is also a sort of fluorogenicity, because the longwave fluorescence appears only in the dye form.

streptavidin = biological target: T1, streptavidin (Streptomyces avidinii, UniProt P22629); assay: Fluorescence quantum yield of the dye after coupling to streptavidin, relative to the uncoupled dye; settings: streptavidin conjugate
T1 construct: purchased IBA
T1 sequence (P22629 38-163 limits assumed): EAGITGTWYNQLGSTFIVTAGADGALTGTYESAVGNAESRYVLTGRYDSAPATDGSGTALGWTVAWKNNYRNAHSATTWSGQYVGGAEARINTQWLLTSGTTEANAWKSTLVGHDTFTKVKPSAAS
Description: The average number of dye molecules per biomolecule is expressed by the “degree of labeling” (DOL). […] Since the dye also absorbs in UV, the (total) absorption measured there must still be corrected with the absorption of the dye at this wavelength in order to obtain the actual biomolecule absorption. For this purpose, with commercial dyes, so-called CF values (correction factor values) are given, which describe the ratio of absorptions of the dye at the longwave maximum and at 260 nm or 280 nm.
From the thus obtained (individual) absorptions of dye and biomolecule in the conjugate, taking into consideration the two extinction coefficients, the quotient is formed, which directly indicates the molecular concentration ratio and thus the mean number of dye molecules per biomolecule (“degree of labeling,” DOL).
The compounds listed in Table 1 belong to the class of rhodamines with the same chromophore system. In an aqueous solution at room temperature they all have a comparably high fluorescence quantum yield of about 90%. […] Thus with established marking procedures, a much better detection reliability is achieved.
2 mg of streptavidin (IBA, content approx. 75%) are dissolved under cautious swirling in a glass vial with 1 ml of PBS buffer (pH 7.4) and 50 μl of a 0.2 M sodium hydrogen carbonate solution, which is set to a pH of 9 with sodium hydroxide. The clear solution has a pH-value of 8.3.
40.5 μl of a solution of 170 μg of compound 7 in 50 μl of dry DMSO are added; this corresponds to a dye-streptavidin ratio of 4:1.
The reaction solution is kept for two hours at room temperature and then kept overnight in the refrigerator at 4° C.
Purification is performed in the usual manner over superfine Sephadex G25 (column length 40 cm, diameter 2.5 cm) with PBS buffer as the eluent. The first colored zone contains the streptavidin conjugate.
The DOL can be calculated from the absorption spectrum of the conjugate fraction by the known procedure.

[2] = Fluorescence maximum of the dye; settings: solvent PBS pH 7.4
Description: (§1) Examples of the compounds according to the invention are listed in Tables 2-6, where the structures as well as the absorption and fluorescence maxima are indicated. The spectra of selected compounds are shown FIGS. 5-18.

[3] = Absorption maximum of the dye
Description: as §1

SMILES | formation of colorless lactone or pseudobase [1] | Fluorescence quantum yield of the dye following coupling to streptavidin in comparison with the uncoupled dye (streptavidin; DOL 2.5, PBS-buffer 25° C.) [%] | Fluorescence quantum yield of the dye following coupling to streptavidin in comparison with the uncoupled dye (streptavidin; DOL 5.5, PBS-buffer 25° C.) [%] | λfl [2] | λabs ([3]; solvent water/acetonitrile 1:1) | Fluorescence quantum yield of the dye following coupling to streptavidin in comparison with the uncoupled dye (streptavidin; DOL 3.0, PBS-buffer 25° C.) [%] | Fluorescence quantum yield of the dye following coupling to streptavidin in comparison with the uncoupled dye (streptavidin; DOL 5.6, PBS-buffer 25° C.) [%] | Fluorescence quantum yield of the dye following coupling to streptavidin in comparison with the uncoupled dye (streptavidin; DOL 2.8, PBS-buffer 25° C.) [%] | Fluorescence quantum yield of the dye following coupling to streptavidin in comparison with the uncoupled dye (streptavidin; DOL 6.7, PBS-buffer 25° C.) [%] | λabs ([3]; solvent PBS pH 7.4) | Fluorescence quantum yield of the dye following coupling to streptavidin in comparison with the uncoupled dye (streptavidin; DOL 7.0, PBS-buffer 25° C.) [%]
CN(CCCC(=O)O)C(=O)c1ccccc1-c1c2cc(S(=O)(=O)O)/c(=N/Cc3ccc(S(=O)(=O)O)cc3S(=O)(=O)O)cc-2oc2cc(NCc3ccc(S(=O)(=O)O)cc3S(=O)(=O)O)c(S(=O)(=O)O)cc12 [Compound 6] | easily form a lactone or pseudobase | 42 | 37 | 559^b nm | 534^c nm |  |  |  |  |  | 
CN(CCCC(=O)NCCCCCC(=O)O)C(=O)c1ccccc1-c1c2cc(S(=O)(=O)O)/c(=N/Cc3ccc(S(=O)(=O)O)cc3S(=O)(=O)O)cc-2oc2cc(NCc3ccc(S(=O)(=O)O)cc3S(=O)(=O)O)c(S(=O)(=O)O)cc12 [Compound 12] | easily form a lactone or pseudobase |  |  | 555^b nm | 536^c nm | 27 |  |  |  |  | 
CN(CCCC(=O)O)C(=O)c1ccccc1-c1c2cc(S(=O)(=O)O)/c(=N/CCc3ccc(S(=O)(=O)O)cc3)cc-2oc2cc(NCCc3ccc(S(=O)(=O)O)cc3)c(S(=O)(=O)O)cc12 [Compound 19] | easily form a lactone or pseudobase |  |  | 560^b nm | 537^c nm |  | 10 |  |  |  | 
CN(CCCC(=O)O)C(=O)c1ccccc1-c1c2cc(S(=O)(=O)O)/c(=N/CCc3ccc(S(=O)(=O)O)cc3S(=O)(=O)O)cc-2oc2cc(NCCc3ccc(S(=O)(=O)O)cc3S(=O)(=O)O)c(S(=O)(=O)O)cc12 [Compound 25] | easily form a lactone or pseudobase |  |  | 560^b nm |  |  |  | 45 | 35 | 539^b nm | 
CN(CCCC(=O)O)C(=O)c1ccccc1-c1c2cc/c(=N/CCc3ccc(S(=O)(=O)O)cc3)c(S(=O)(=O)O)c-2oc2c(S(=O)(=O)O)c(NCCc3ccc(S(=O)(=O)O)cc3)ccc12 [Compound 26] |  |  |  | 558^b nm | 538^c nm |  |  |  |  |  | 8
